Measurements published in publication PMC4370192, “Discovery of Specific Inhibitors for Intestinal E. coli β-Glucuronidase through In Silico Virtual Screening” (The Scientific World Journal, 2015).

Legend:
[1] = biological target: T1, E. coli β-glucuronidase (eβG) (Escherichia coli, UniProt P05804); test: In vitro βG-activity assay (pNPG hydrolysis), eβG; assay type: biochemical; details: 50 μM compound, pH 7.3, percent of activity vs untreated control
T1 construct: histidine tag (N); made in house; host or cells: E. coli BL21 (DE3)
T1 sequence (P05804 whole entry): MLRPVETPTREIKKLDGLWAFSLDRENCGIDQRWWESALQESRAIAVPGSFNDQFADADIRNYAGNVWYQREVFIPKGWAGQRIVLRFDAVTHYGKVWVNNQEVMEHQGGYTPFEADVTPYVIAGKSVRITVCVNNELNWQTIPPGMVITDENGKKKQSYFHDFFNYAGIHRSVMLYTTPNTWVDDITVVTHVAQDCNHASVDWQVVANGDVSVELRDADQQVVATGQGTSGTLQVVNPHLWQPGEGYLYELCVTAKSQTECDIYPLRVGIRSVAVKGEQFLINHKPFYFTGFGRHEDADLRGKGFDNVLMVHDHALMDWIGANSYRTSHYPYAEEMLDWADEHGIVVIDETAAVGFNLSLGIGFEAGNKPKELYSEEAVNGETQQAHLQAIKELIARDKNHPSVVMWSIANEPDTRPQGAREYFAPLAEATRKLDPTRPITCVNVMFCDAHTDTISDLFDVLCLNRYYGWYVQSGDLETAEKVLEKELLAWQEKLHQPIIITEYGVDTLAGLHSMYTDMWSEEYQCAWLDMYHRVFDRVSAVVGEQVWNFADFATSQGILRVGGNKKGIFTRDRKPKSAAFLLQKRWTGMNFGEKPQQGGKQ
Experimental: (§1) Plasmid pRESTB containing βG gene and a histidine tag at the N-terminus was constructed as described. Recombinant βG (human and E. coli) was produced by isopropyl β-D-thiogalactopyranoside (IPTG) induction of BL21 (DE3) bacteria. βG was purified from bacterial supernatants by affinity chromatography on nickels Sepharose 6 Fast Flow (GE Healthcare). The column was washed by phosphate-buffered saline (PBS), with 50 mM imidazole, and βG was eluted by PBS with 250 mM imidazole. The purified βG was desalted on a Sephadex G-25 column equilibrated with PBS and stored at −80°C.
The candidate compounds were purchased from SPECS (The Netherlands). Each candidate was provided as a solid power and dissolved in 100% DMSO (Sigma-Aldrich) to 10 mM as stock. Candidates were screened for their inhibition specificity of eβG versus hβG, which were conducted at pH 7.3 or pH 5.4, in triplicate, respectively. 40 μL purified βG was treated with 10 μL compound solution at 37°C for 30 min and sequentially incubated with 50 μL of pNPG (Sigma-Aldrich) at 37°C for 30 min. Reactions were quenched with 5 μL of 2 N sodium hydroxide (Sigma-Aldrich). Each reaction consisted of 3.75 ng purified βG, 50 μM compound, and 5 mM pNPG in PBS containing 10% DMSO and 0.05% BSA (Sigma-Aldrich). βG-activities were measured by color development of pNP detected on a microplate reader at OD 405 nm. […] For IC50 determination, compounds at various concentrations (100 μM to 0.001 μM) were added.
Supplementary file 740815.f1.pdf: Fifty-nine candidate compounds were acquired from the initial virtually screening which was designed to target the bacterial loop of eβG and its active site. The docking energy scores of 59 candidate compounds measured by the DOCK program are -43 to -55 kcal/mol. (Table S1) The candidate compounds were purchased from SPECS (Zoetermeer, The Netherlands). Each candidate was rovided as a solid power and dissolved in 100% DMSO (Sigma-Aldrich, MO, USA) to 10 mM as stock. Candidates were screening for their inhibition specificity of eβG verse hβG, which were conducted at pH 7.3 or pH 5.4 in triplicate, respectively. 40 µL purified βG was treated with 10 µL compound solution at 37 °C for 30 min, and sequentially incubated with 50 µL of pNPG (Sigma-Aldrich) at 37 °C for 30 min. Reactions were quenched with 5 µL of 2 N sodium hydroxide (Sigma-Aldrich). Each reaction consisted of 3.75 ng purified βG, 50 µM compound, and 5 mM pNPG in PBS containing 10% DMSO and 0.05% BSA (Sigma-Aldrich). βG-activities were measured by color development of pNP detected on a microplate reader at OD 405 nm. […] Especially, the inhibiting ability against eβG activity was >95% in 7 candidates of eβG specific inhibitors (Table S1).
(§2) Fifty-nine candidate compounds were acquired from the initial virtually screening which was designed to target the bacterial loop of eβG and its active site. The docking energy scores of 59 candidate compounds measured by the DOCK program are -43 to -55 kcal/mol. (Table S1) The candidate compounds were purchased from SPECS (Zoetermeer, The Netherlands). Each candidate was provided as a solid power and dissolved in 100% DMSO (Sigma-Aldrich, MO, USA) to 10 mM as stock. Candidates were screening for their inhibition specificity of eβG verse hβG, which were conducted at pH 7.3 or pH 5.4 in triplicate, respectively. 40 μL purified βG was treated with 10 μL compound solution at 37 °C for 30 min, and sequentially incubated with 50 μL of pNPG (Sigma-Aldrich) at 37 °C for 30 min. Reactions were quenched with 5 μL of 2 N sodium hydroxide (Sigma-Aldrich). Each reaction consisted of 3.75 ng purified βG, 50 μM compound, and 5 mM pNPG in PBS containing 10% DMSO and 0.05% BSA (Sigma-Aldrich). βG-activities were measured by color development of pNP detected on a microplate reader at OD 405 nm. […]
percent of βG activity compared with the untreated control.
Especially, the inhibiting ability against eβG activity was >95% in 7 candidates of eβG specific inhibitors (Table S1).
Table S1. […]

human βG (hβG) = biological target: T2, human βG (hβG) (Homo sapiens, UniProt P08236); test: In vitro βG-activity assay (pNPG hydrolysis), hβG; assay type: biochemical; details: pH 5.4, percent of activity vs untreated control
T2 construct: histidine tag (N); made in house; host or cells: E. coli BL21 (DE3)
T2 sequence (P08236 23-651): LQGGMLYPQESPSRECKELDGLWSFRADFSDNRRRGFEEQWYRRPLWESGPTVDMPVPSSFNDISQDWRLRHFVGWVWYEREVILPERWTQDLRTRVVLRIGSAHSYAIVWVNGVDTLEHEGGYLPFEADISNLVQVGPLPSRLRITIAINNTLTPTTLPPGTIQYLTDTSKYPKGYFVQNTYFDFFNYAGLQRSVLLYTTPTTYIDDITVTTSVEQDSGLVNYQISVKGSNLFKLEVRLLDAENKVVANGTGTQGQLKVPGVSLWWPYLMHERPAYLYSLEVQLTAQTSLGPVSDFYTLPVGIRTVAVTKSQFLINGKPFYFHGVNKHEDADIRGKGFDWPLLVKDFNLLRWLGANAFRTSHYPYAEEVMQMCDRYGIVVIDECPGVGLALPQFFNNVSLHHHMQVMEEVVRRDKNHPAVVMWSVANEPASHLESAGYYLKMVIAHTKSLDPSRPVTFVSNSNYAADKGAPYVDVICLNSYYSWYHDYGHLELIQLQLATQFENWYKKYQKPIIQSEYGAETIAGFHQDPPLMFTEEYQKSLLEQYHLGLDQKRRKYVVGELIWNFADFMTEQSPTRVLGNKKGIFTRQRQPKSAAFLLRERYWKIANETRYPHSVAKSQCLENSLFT
Experimental: as §1
The candidate compounds were purchased from SPECS (The Netherlands). Each candidate was provided as a solid power and dissolved in 100% DMSO (Sigma-Aldrich) to 10 mM as stock. Candidates were screened for their inhibition specificity of eβG versus hβG, which were conducted at pH 7.3 or pH 5.4, in triplicate, respectively. 40 μL purified βG was treated with 10 μL compound solution at 37°C for 30 min and sequentially incubated with 50 μL of pNPG (Sigma-Aldrich) at 37°C for 30 min. Reactions were quenched with 5 μL of 2 N sodium hydroxide (Sigma-Aldrich). Each reaction consisted of 3.75 ng purified βG, 50 μM compound, and 5 mM pNPG in PBS containing 10% DMSO and 0.05% BSA (Sigma-Aldrich). βG-activities were measured by color development of pNP detected on a microplate reader at OD 405 nm.
as §2, with “(Table” for “Fifty-nine candidate compounds were acquired from the initial virtually screening which was designed to target the bacterial loop of eβG and its active site. The docking energy scores of 59 candidate compounds measured by the DOCK program are -43 to -55 kcal/mol. (Table”, “rovided” for “provided”, “µL” for “μL”, “µM” for “μM”
candidate compounds were purchased from SPECS (Zoetermeer, The Netherlands). Each candidate was provided as a solid power and dissolved in 100% DMSO (Sigma-Aldrich, MO, USA) to 10 mM as stock. Candidates were screening for their inhibition specificity of eβG verse hβG, which were conducted at pH 7.3 or pH 5.4 in triplicate, respectively. 40 μL purified βG was treated with 10 μL compound solution at 37 °C for 30 min, and sequentially incubated with 50 μL of pNPG (Sigma-Aldrich) at 37 °C for 30 min. Reactions were quenched with 5 μL of 2 N sodium hydroxide (Sigma-Aldrich). Each reaction consisted of 3.75 ng purified βG, 50 μM compound, and 5 mM pNPG in PBS containing 10% DMSO and 0.05% BSA (Sigma-Aldrich). βG-activities were measured by color development of pNP detected on a microplate reader at OD 405 nm.

SMILES | eβG activity (%) with 50 μM compound [1] | hβG activity (%) with 50 μM compound (human βG (hβG))
O=C1c2ccccc2C(=O)c2c1cccc2S(=O)(=O)Nc1ccc(Cl)cc1 [Compound 8074] | 22.15% | 109.09%
O=S(=O)(c1ccc(Br)cc1)N1CCNCC1 [Compound 8329] | 33.19% | 97.77%
Cc1cccc(C(=O)NC2(C(F)(F)F)C(=O)Nc3c2c(=O)[nH]c(=O)n3-c2ccc(Cl)cc2)c1 (stereo not shown) [Compound 8572] | 17.66% | 102.81%
Cc1cc(NS(=O)(=O)c2ccc(NC(=O)C(C)Oc3ccc(Cl)cc3Cl)cc2)no1 (stereo not shown) [Compound 8889] | 11.40% | 102.15%
CS(=O)(=O)CCC(C(=O)O)N1C(=O)c2ccccc2C1=O (stereo not shown) [Compound 9063] | 32.48% | 105.45%
CS(=O)(=O)c1ccc2nc(NC(=O)c3ccccc3C(=O)O)sc2c1 [Compound 9107] | 29.70% | 105.37%
COc1ccc(Cl)cc1NC(=O)CC(C(=O)O)N1CCNCC1 (stereo not shown) [Compound 9183] | 39.67% | 107.36%
CCN(CC)S(=O)(=O)c1cccc(N=Nc2c(O)[nH]c(=O)[nH]c2=O)c1 [Compound 9274] | 32.34% | 106.69%
CCN1CCN(S(=O)(=O)c2cccc(Cl)c2)CC1 [Compound 9572] | 42.66% | 106.78%
Cc1ccc2nc(CSc3nc(-c4ccncc4)ccc3C#N)[nH]c2c1 [Compound 9665] | 8.97% | 100.83%
COc1ccc2ccccc2c1CNCC1CCNCC1 [Compound 9927] | 25.00% | 113.80%
